Experimental findings from US20130197043A1, “USE OF THE FETAL REPROGRAMMING OF A PPAR AGONIST” (SNU R&DB FOUNDATION, priority 2010, published 2013) are described below.

The structures appear in SMILES notation.

In assay [1] the test system is cytosolic calcium in differentiated muscle cells. Put plainly: Analysis of cytosolic calcium (Flou4, confocal microscope). In kind it is cell-based, mouse. The note with it: 300 nM, 10 mM caffeine, calcium-free Kreb solution. How it is done:
An experiment using a calcium-specific dye reagent, Flou4(Molecular probe), was conducted in order to confirm the effect on concentration of cytosolic calcium by the changes of RYR, SERCA, and PLN. The experiment method is as follows. The isolated muscle cells were grown on a culture plate with an attached glass slide through primary culture, and then differentiated into myotube while being treated with 300 nM of PPAR δ agonist (CMDD1111). Flou4 (final concentration: 5 μM) dye reagent was put into the differentiated muscle cells, which were then cultured for 30 minutes. The calcium-free Kreb solution was used as a culture medium to measure the change of cytosolic calcium, and treatment with 10 mM of caffeine was conducted to activate calcium channels. Intracellular calcium ion change was measured by using a confocal microscope. As the measurement result, the retention time of cytosolic calcium was increased by 43% (592±60 versus 847±77 sec) in the muscle cell to which PPAR δ agonist (CMDD1111) was added (FIG. 13). The reason was that expressions of RYR regulating calcium efflux and PLN suppressing calcium influx in the sarcoplasmic membrane were increased by PPAR δ. […]

In assay [2] the test system is mice with high-fat-induced diabetes. Put plainly: Glucose tolerance test (GTT) in mice with high-fat-induced diabetes. As to conditions: 10 mg/Kg/day over 70 days; glucose 1.5 g/kg. In kind it is in vivo. On the procedure:
The glucose tolerance test (GTT) was conducted in order to verify the diabetes improvement effect of the material according to the present invention. Glucose (1.5 g/kg) was abdominally administer to mice with high-fat-induced diabetes, which was orally administered with medicine over 70 days, and then the blood glucose level change was measured for 2 hours. […] In contrast, the mouse control group administered with the vehicle […] normal blood glucose level even after 120 minutes.

The subject of a further assay is HDL in serum. The assay is described as follows: High-density lipoprotein cholesterol (HDL) in serum. In kind it is in vivo. The note with it: mice fed 10% fat feedstuff over 6 weeks. The source says:
High-density lipoprotein cholesterol (HDL) has been known to play an important role in treating lipid metabolic disorders such as arteriosclerosis and hyperlipidemia while lowering the cholesterol level of an epidermal cell and mitigating an inflammatory reaction. Serum was separated from the mice fed over a 6-week period of feedstuff containing 10% fat in order to confirm the high-density cholesterol increase effect of Compounds 5 and 9, which were the developed materials of the present invention.

The target in a further assay is T1, hPPAR δ (Homo sapiens, UniProt Q03181).
T1 construct: expressed in transfected cells; host or cells: CV-1 cells
T1 sequence (Q03181 1-441): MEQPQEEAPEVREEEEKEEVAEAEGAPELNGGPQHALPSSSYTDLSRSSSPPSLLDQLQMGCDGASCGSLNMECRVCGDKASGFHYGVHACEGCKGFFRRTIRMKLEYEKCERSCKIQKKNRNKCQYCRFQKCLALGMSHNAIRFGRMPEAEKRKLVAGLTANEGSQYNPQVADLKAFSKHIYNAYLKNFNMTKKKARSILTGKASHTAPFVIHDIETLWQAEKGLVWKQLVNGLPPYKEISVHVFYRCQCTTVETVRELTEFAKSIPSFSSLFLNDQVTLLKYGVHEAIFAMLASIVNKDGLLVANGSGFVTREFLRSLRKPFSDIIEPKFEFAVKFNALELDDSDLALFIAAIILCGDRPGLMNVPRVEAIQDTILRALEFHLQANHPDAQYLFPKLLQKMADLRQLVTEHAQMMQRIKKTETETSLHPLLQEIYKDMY
Put plainly: Transfection assay in CV-1 cells, hPPAR δ. In kind it is cell-based. The note with it: luciferase reporter. On the procedure: (§1) This assay was conducted by using CV-1 cells. The cells were cultured on a 96-well plate with a DMEM medium containing 10% FBS, DBS (delipidated), and 1% penicillin/streptomycin in 37° C. of an incubator 5% of carbon dioxide. Test was conducted in four stages of cell inoculation, transfection, treatment with the developed material, and result confirmation. The CV-1 cells were inoculated on the 96-well plate at a cell density at 5,000 cells/well, and after 24 hours, transfection was performed. PPARs plasmid DNA, reporter DNA, and β-galactosidase DNA were mixed with a transfection reagent, and then used to treat the cells. The developed material was dissolved in dimethylsulfoxide (DMSO), and then was used to treat the cells by using media at various concentrations. After 24 hours of culturing in an incubator, the cells were lysed with a lysis buffer and luciferase activity and β-galactosidase activity were measured using a luminometer and a microplate reader. The measured luciferase value was calibrated with the β-galactosidase value, and this value was depicted on a graph and EC50 was determined.

The target of the next assay is T2, hPPARg (Homo sapiens, UniProt P37231).
T2 construct: expressed in transfected cells; host or cells: CV-1 cells
T2 sequence (P37231 1-505): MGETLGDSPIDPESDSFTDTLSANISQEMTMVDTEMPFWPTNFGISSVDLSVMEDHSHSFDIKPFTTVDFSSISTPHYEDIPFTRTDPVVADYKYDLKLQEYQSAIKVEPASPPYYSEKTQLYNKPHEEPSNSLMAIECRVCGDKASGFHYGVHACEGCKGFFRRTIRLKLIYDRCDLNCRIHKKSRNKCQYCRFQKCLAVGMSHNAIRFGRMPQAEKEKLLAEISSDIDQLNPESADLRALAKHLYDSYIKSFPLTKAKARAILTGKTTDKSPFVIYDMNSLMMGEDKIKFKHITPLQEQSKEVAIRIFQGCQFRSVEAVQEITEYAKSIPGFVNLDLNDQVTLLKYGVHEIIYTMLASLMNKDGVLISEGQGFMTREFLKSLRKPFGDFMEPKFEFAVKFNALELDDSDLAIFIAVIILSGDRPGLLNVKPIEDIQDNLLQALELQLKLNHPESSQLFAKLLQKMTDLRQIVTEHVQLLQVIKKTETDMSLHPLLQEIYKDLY
The assay is described as follows: Transfection assay in CV-1 cells, hPPARg. In kind it is cell-based. As to conditions: luciferase reporter. How it is done: as §1
(In general: Reporter assays use an easily measured gene product as a stand-in for the process of interest.)

The next assay concerns 10-week old C57BL/6 mice. Put plainly: Treadmill endurance test of adult mice exercised while administered. In kind it is in vivo. As to conditions: 10 mg/kg/day oral with exercise over 30 days. On the procedure: In addition, it was verified that the developed material was effective in enhancing muscle endurance and improving muscular function. 10-week old C57BL/6 mice were exercised while being orally administered with the developed material at a concentration of 10 mg/kg/day. The mice were exercised using a treadmill for 30 minutes once each day over 30 days. The mice were exercised under exercise conditions of 2 meter/min for 5 minutes, 5 meters/min for 5 minutes, 8 meters/min for 5 minutes, and 20 meters/min for 5 minutes, respectively. By the end of the test, muscle endurance enhancement and muscular function improvement effects were tested by using a treadmill.

On to `Cc1cc(SC(Cc2ccccc2)c2sc(-c3ccc(C(F)(F)F)cc3)nc2C)ccc1OCC(=O)O` (stereo not shown) [CMDD1111], for which, in assay [1], the “increase of retention time of cytosolic calcium” value turned out to be 43% and the “retention time of cytosolic calcium” value was 847 ± 77 s.

The term EC50 denotes the concentration that produces a half-maximal response. A higher EC50 goes with a need for much substance. Regarding `Cc1cc(SC(Cc2ccc(-c3ccc(F)cc3)cc2)c2sc(-c3ccc(C(F)(F)F)cc3)nc2C)ccc1OCC(=O)O` (stereo not shown) [Compound 9], in assay [2], the “blood glucose level change between 20 and 40 minutes versus control” value was “rapid decrease”; the “complete glucose clearance after” value amounted to 100 min. Further, the “HDL increase in serum” value with HDL in serum came to 62%. In addition, a half-maximal response at hPPAR δ (EC50) required 3.9 nM. The “EC50 hPPARg” value at hPPARg was “ia”. Moreover, in the assay on 10-week old C57BL/6 mice, the “increase in the running distance versus control” value turned out to be 1.5 fold and the “increase in the running time versus control” value is 1.5 fold.

Regarding `Cc1cc(SC(Cc2ccc(-c3ccccc3)cc2)c2sc(-c3ccc(C(F)(F)F)cc3)nc2C)ccc1OCC(=O)O` (stereo not shown) [Compound 5], in assay [2], the “blood glucose level change between 20 and 40 minutes versus control” value was “rapid decrease”; the “complete glucose clearance after” value stood at 100 min. Also, the “HDL increase in serum” value in the assay with HDL in serum worked out at 68%. In addition, the EC50 on hPPAR δ was determined as 3.3 nM. On hPPARg, the “EC50 hPPARg” value is “ia”. In the assay on 10-week old C57BL/6 mice, the “increase in the running distance versus control” value was 1.8 fold and the “increase in the running time versus control” value is recorded as 1.7 fold.
